Results on 32 molecules are retold here after patent publication US20120077802A1 (SUNOVION PHARMACEUTICALS INC., priority 2009, published 2012).

What is called IC50 is the midpoint of a concentration-inhibition curve.

T1 sequence (Q9Y5N1 whole entry): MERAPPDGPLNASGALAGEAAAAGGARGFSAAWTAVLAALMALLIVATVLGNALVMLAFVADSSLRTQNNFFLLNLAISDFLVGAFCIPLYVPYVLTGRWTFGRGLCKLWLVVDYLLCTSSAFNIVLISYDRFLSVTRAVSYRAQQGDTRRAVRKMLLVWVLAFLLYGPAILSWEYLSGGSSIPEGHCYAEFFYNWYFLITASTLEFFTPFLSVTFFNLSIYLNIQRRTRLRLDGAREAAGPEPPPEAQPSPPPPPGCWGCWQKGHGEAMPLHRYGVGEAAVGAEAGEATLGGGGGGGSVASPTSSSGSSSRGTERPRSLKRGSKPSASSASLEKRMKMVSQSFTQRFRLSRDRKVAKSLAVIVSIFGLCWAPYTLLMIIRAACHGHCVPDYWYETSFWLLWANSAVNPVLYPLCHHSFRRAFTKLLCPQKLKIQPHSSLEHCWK

One assay concerns the target T1, human histamine H3 receptor (Homo sapiens, UniProt Q9Y5N1).
T1 construct: host or cells: cells expressing the human H3 receptor
Description: H3 GTPγS assay (SPA method), histamine H3 in vitro assay. Type of assay: biochemical. As to conditions: GTPγ[35S] SPA, membranes of cells expressing human H3 receptor; in one embodiment HCl salts tested; read-out: Potency (functional potency as indicated by IC50). How it is done:
H3 GTPγS assay (SPA method) was performed at EuroScreen (Belgium, ES-392-C) using conventional methods. Briefly, cells expressing the human histamine H3 receptor were homogenized in 15 mM Tris-HCl pH 7.5, 2 mM MgCl2, 0.3 mM EDTA, and 1 mM EGTA. Membranes were washed twice in the above tris buffer, collected by centrifugation (40,000×g, 25 min), and re-suspended in 75 mM Tris-HCl pH 7.5, 12.5 mM MgCl2, 0.3 mM EDTA, 1 mM EGTA, and 250 mM sucrose. Membranes were frozen in liquid nitrogen until use. On the day of the assay, membranes were thawed and diluted in assay buffer (20 mM HEPES pH 7.4, 100 mM NaCl, 10 μg/ml saponin, 1 mM MgCl2) to give 500 μg/ml and mixed (v/v) with GDP in assay buffer for a final GDP concentration of 10 μM and incubated on ice for at least 15 min. PVT-WGA beads (Amersham, RPNQ001) were diluted in assay buffer at 50 mg/mL and mixed with GTPγ[^35S] (Amersham, SJ1308) diluted in assay buffer to give ˜25,000 dpm/10 μL, and mixed vol/vol just before the start of the reaction. The reaction was started by adding 50 μL of test compound, 20 μL of the membranes:GDP mix, 10 μL of buffer, and 20 μL of the GTPγ[^35S]:beads mix in a 96 well plate Optiplate™ (PerkinElmer, 6005299) covered with topseal (TopCount™, PerkinElmer), mixed with an orbital shaker for 2 min, incubated for 1 hour at room temperature, centrifuged for 10 min at 2000 rpm, incubated for 1 h at room temperature, and counted for 1 min in a TopCount™ reader (PerkinElmer). Dose response curves and IC50 values (concentration to inhibit the reaction by 50%) were calculated by nonlinear regression using XLfit software (IDBS).
For antagonists testing, 10 μL of a reference agonist (R-γ-Me-Histamine) instead of 10 μL buffer was added at a concentration corresponding to the EC80 (30 nM). Control ligands were R-γ-Me-Histamine (Tocris, 0569), Imetit (Sigma, I-135), Thioperamide (Tocris, 0644), and Clobenpropit (Tocris, 0754) diluted in assay buffer.
The compounds provided herein were tested in the histamine H3 in vitro assay. In one embodiment, the respective HCl salts of the compounds provided herein were prepared using standard chemical procedures and tested in the histamine H3 in vitro assay.
Consider `c1cc2cc(-c3ccc4c(c3)CC3(CCN(C5CCC5)CC3)O4)ccc2[nH]1` [Compound 7, 1′-Cyclobutyl-5-(1H-indol-5-yl)-3H-spiro[benzofuran-2,4′-piperidine]], for which the half-maximal inhibitory concentration (IC50) was at most 100 nM.
For the molecule `Cn1cnc2cc(-c3ccc4c(c3)CC3(CCN(C5CCC5)CC3)O4)cnc21` [Compound 61, 1′-Cyclobutyl-5-(3-methyl-3H-imidazo[4,5-b]pyridin-6-yl)-3H-spiro[benzofuran-2,4′-piperidine]], the IC50 is at most 10 nM.
The same measure, in the same setting: as for `c1cc2c(cc1CN1CCOCC1)CC1(CCN3CCCCC3C1)O2` (centres unmarked) [Compound 79, 5-(Morpholinomethyl)-1′,3′,4′,6′,7′,8′,9′,9a′-octahydro-3H-spiro[benzofuran-2,2′-quinolizine]], the figure is at most 10 nM; as for `Cc1cn2cc(-c3ccc4c(c3)CC3(CCN(C5CCC5)CC3)O4)ccc2n1` [Compound 54, 1′-Cyclobutyl-5-(2-methylimidazo[1,2-a]pyridin-6-yl)-3H-spiro[benzofuran-2,4′-piperidine]], at most 10 nM; as for `CN(C)Cc1ccc2c(c1)OC1(CCN(C3CCC3)CC1)C2` [Compound 43, 1-(1′-Cyclobutyl-3H-spiro[benzofuran-2,4′-piperidine]-6-yl)-N,N-dimethylmethanamine], at most 100 nM.
For `c1cc2c(cc1N1CCCCC1)CC1(CCN(C3CCC3)CC1)O2` [Compound 34, 1′-Cyclobutyl-5-(piperidin-1-yl)-3H-spiro[benzofuran-2,4′-piperidine]], the IC50 is at most 100 nM.
Take `N#Cc1ccc(-c2ccc3c(c2)OC2(CCN(C4CCC4)CC2)C3)cc1` [Compound 35, 4-(1′-Cyclobutyl-3H-spiro[benzofuran-2,4′-piperidine]-6-yl)benzonitrile]: the IC50 is at most 100 nM.
Still for that read-out and setting: as for `c1cc2c(cc1-c1ccc3cncn3c1)CC1(CCN(C3CCC3)CC1)O2` [Compound 57, 1′-Cyclobutyl-5-(imidazo[1,5-a]pyridin-6-yl)-3H-spiro[benzofuran-2,4′-piperidine]], the figure is at most 10 nM.
The same measure, in the same setting: as for `c1ccc2c(c1)ncn2-c1ccc2c(c1)C[C@]1(CCCN(C3CCC3)CC1)O2` (single isomer, unassigned) [Compound 52, 5′-(1H-Benzo[d]imidazol-1-yl)-1-cyclobutyl-3′H-spiro[azepane-4,2′-benzofuran]], the figure is at most 100 nM; as for “5-((3,4-Dihydroisoquinolin-2(1H)-yl)methyl)-2′,3′,4′,6′,7′,9′,10′,10a′-octahydro-1′H,3H-spiro[benzofuran-2,8′-pyrido[1,2-a]azepine] and 5-((3,4-dihydroisoquinolin-2(1H)-yl)methyl)-2′,3′,4′,6′,7′,8′,10′,10a′-octahydro-1′H,3H-spiro[benzofuran-2,9′-pyrido[1,2-a]azepine] [88/88a]”, at most 100 nM; as for `Clc1ccc2c(c1)OC1(CCCN(C3CCC3)CC1)C2` (centres unmarked) [Compound 67, 6′-Chloro-1-cyclobutyl-3′H-spiro[azepane-4,2′-benzofuran]], at most 1000 nM.
The same measure, in the same setting: as for `Cn1ncc2ccc(-c3ccc4c(c3)CC3(CCN(C5CCC5)CC3)O4)cc21` [Compound 65, 1′-Cyclobutyl-5-(1-methyl-1H-indazol-6-yl)-3H-spiro[benzofuran-2,4′-piperidine]], the figure is at most 10 nM.
Turning to `c1cn2cc(-c3ccc4c(c3)CC3(CCC5CCCCN5CC3)O4)ccc2n1` (centres unmarked) [Compound 83, 5-(Imidazo[1,2-a]pyridin-6-yl)-2′,3′,4′,6′,7′,9′,10′,10a′-octahydro-1′H,3H-spiro[benzofuran-2,8′-pyrido[1,2-a]azepine]], the IC50 was at most 100 nM.
The same measure, in the same setting: as for `c1cc2cc(-c3ccc4c(c3)CC3(CCN(C5CCC5)CC3)O4)cnc2[nH]1` [Compound 55, 1′-Cyclobutyl-5-(1H-pyrrolo[2,3-b]pyridin-5-yl)-3H-spiro[benzofuran-2,4′-piperidine]], the figure is at most 100 nM; as for `CC(C1CCC1)N1CCC2(CC1)Cc1cc(-c3ccc(C#N)cc3)ccc1O2` (centres unmarked) [Compound 11, 4-(1′-(1-Cyclobutylethyl)-3H-spiro[benzofuran-2,4′-piperidine]-5-yl)benzonitrile], at most 10 nM; as for `CN1CCN(c2ccc3c(c2)OC2(CCN(C4CCC4)CC2)C3)CC1` [Compound 38, 1′-Cyclobutyl-6-(4-methylpiperazin-1-yl)-3H-spiro[benzofuran-2,4′-piperidine]], at most 100 nM.
The same measure, in the same setting: as for `N#Cc1ccc(-c2ccc3c(c2)CC2(CCN(C4CCOCC4)CC2)O3)cc1` [Compound 19, 4-(1′-(Tetrahydro-2H-pyran-4-yl)-3H-spiro[benzofuran-2,4′-piperidine]-5-yl)benzonitrile], the figure is at most 100 nM.
Take `CC(C1CCC1)N1CCC2(CC1)Cc1cc(Br)ccc1O2` (centres unmarked) [Compound 25, 5-Bromo-1′-(1-cyclobutylethyl)-3H-spiro[benzofuran-2,4′-piperidine]]: the IC50 was at most 1000 nM.
The same measure, in the same setting: as for `c1cc2c(cc1CN1CCOCC1)CC1(CCN3CCCC3C1)O2` (centres unmarked) [Compound 92, 5-(Morpholinomethyl)-2′,3′,5′,6′,8′,8a′-hexahydro-1′H,3H-spiro[benzofuran-2,7′-indolizine]], the figure is at most 10 nM.
On the same count and under the same terms, as for `CC(=O)Nc1ccc(-c2ccc3c(c2)CC2(CCN(C4CCN(C)CC4)CC2)O3)cc1` [Compound 9, N-(4-(1′-(1-Methylpiperidin-4-yl)-3H-spiro[benzofuran-2,4′-piperidine]-5-yl)phenyl)acetamide], the figure is at most 100 nM; as for `N#Cc1ccc(-c2ccc3c(c2)CC2(CCN(C4CCCCC4)CC2)O3)cc1` [Compound 20, 4-(1′-Cyclohexyl-3H-spiro[benzofuran-2,4′-piperidine]-5-yl)benzonitrile], at most 100 nM.
Turning to `c1cn2cc(-c3ccc4c(c3)CC3(CCCN(C5CCC5)CC3)O4)ccc2n1` (centres unmarked) [Compound 49, 1-Cyclobutyl-5′-(imidazo[1,2-a]pyridin-6-yl)-3′H-spiro[azepane-4,2′-benzofuran]], the IC50 is at most 100 nM.
Still for that read-out and setting: as for `Brc1ccc2c(c1)CC1(CCN3CCCC3C1)O2` (centres unmarked) [Compound 89, 5-Bromo-2′,3′,5′,6′,8′,8a′-hexahydro-1′H,3H-spiro[benzofuran-2,7′-indolizine]], the figure is at most 100 nM; as for `c1cc2c(cc1-c1ccc3nncn3c1)CC1(CCN(C3CCC3)CC1)O2` [Compound 63], at most 10 nM.
For “5-Bromo-1′,2′,3′,5′,6′,7′,9′,9a′-octahydro-3H-spiro[benzofuran-2,8′-pyrrolo[1,2-a]azepine] and 5-bromo-1′,2′,3′,5′,6′,8′,9′,9a′-octahydro-3H-spiro[benzofuran-2,7′-pyrrolo[1,2-a]azepine] [94/94a]”, the IC50 was at most 1000 nM.
Regarding `N#Cc1ccc(NCc2ccc3c(c2)OC2(CCN(C4CCC4)CC2)C3)cc1` [Compound 46, 4-((1′-Cyclobutyl-3H-spiro[benzofuran-2,4′-piperidine]-6-yl)methylamino)benzonitrile], the concentration for half-maximal inhibition (IC50) is at most 100 nM.
In the case of `c1cn2cc(-c3ccc4c(c3)CC3(CCN5CCCCC5C3)O4)ccc2n1` (centres unmarked) [Compound 77, 5-(Imidazo[1,2-a]pyridin-6-yl)-1′,3′,4′,6′,7′,8′,9′,9a′-octahydro-3H-spiro[benzofuran-2,2′-quinolizine]], the IC50 is at most 10 nM.
With `CN(C)Cc1ccc2c(c1)CC1(CCN(C3CCC3)CC1)O2` [Compound 39, 1-(1′-Cyclobutyl-3H-spiro[benzofuran-2,4′-piperidine]-5-yl)-N,N-dimethylmethanamine], the IC50 is at most 10 nM.
Same read-out and setting: as for `c1cc2c(cc1N1CCCCC1)CC1(CCCN(C3CCC3)CC1)O2` (centres unmarked) [Compound 51, 1-Cyclobutyl-5′-(piperidin-1-yl)-3′H-spiro[azepane-4,2′-benzofuran]], the figure is at most 100 nM; as for `c1ccc2c(c1)ncn2-c1ccc2c(c1)CC1(CCCN(C3CCC3)CC1)O2` (centres unmarked) [Compound 50, 5′-(1H-Benzo[d]imidazol-1-yl)-1-cyclobutyl-3′H-spiro[azepane-4,2′-benzofuran]], at most 10 nM; as for “5-Bromo-2′,3′,4′,6′,7′,9′,10′,10a′-octahydro-1′H,3H-spiro[benzofuran-2,8′-pyrido[1,2-a]azepine] and 5-bromo-2′,3′,4′,6′,7′,8′,10′,10a′-octahydro-1′H,3H-spiro[benzofuran-2,9′-pyrido[1,2-a]azepine] [82/82a]”, at most 1000 nM.

The same assay, now with this note: histamine H3 in vitro assay; read-out: IC50 values.
On to `CN1CCC(N2CCC3(CC2)Cc2ccccc2O3)CC1` [Compound 2, 1′-(1-Methylpiperidin-4-yl)-3H-spiro[benzofuran-2,4′-piperidine]], for which the IC50 was over 1000 nM.
